Tests used:
Format in all cases: in vivo
Drosophila suzukii [1] = assay: Multiple-choice bioassay: EAD-active compound added to 4-component SWD lure in gated cup traps
Method: Multiple-Choice Bioassay: The multiple choice assay (N=8) was conducted with an arena design using a dome cage (60 cm W×60 cm L×60 cm H; BugDorm-2120 Insect tent; shop.bugdorm.com) as described in Cha et al. 2018b (Cha, D. H., et al., Environ. Entomol., 47: 946-950 (2018b)) to evaluate the effect of the individual EAD-active compounds (FIG. 1) on SWD attraction to previously identified 4-component SWD lure (Cha et al. 2012; Cha, D. H., et al., Pest Manag. Sci., 70: 324-331 (2014); Cha, D. H., et al., Environ. Entomol., 46: 907-915 (2017)). Among 18 EAD-active compounds in FIG. 1, acetoin, 1-hexanol, isoamyl acetate, 2-methylbutyl acetate, and 2-phenylethanol were previously tested for their behavioral effects (Cha et al. 2012, 2014) and not considered in this study. Therefore, we compared 13 EAD-active compounds in this study. Within each arena, 14 traps were positioned in a circle (40 cm diameter) at equal distance with each trap 9 cm apart along the circumference. We used an aluminum foil-covered 100-ml glass beaker with a cut centrifuge vial (0.7 cm diameter) inserted in the foil for SWD entry, as a trap (Cha et al. 2012). All 14 traps had the SWD lure comprised of acetic acid, ethanol, acetoin, and methionol. Acetic acid and ethanol were released from a 20 ml solution of 4% acetic acid+8% ethanol with soap, presented as a drowning solution in each trap. Acetoin (1 ml of 50% acetoin in water) and methionol (0.5 ml neat methionol) were individually released from two 1.5-ml vials with 3-mm hole on the lid with a piece of cotton as described in Cha et al. 2014. One of these 14 traps served as a control (with the 4-component SWD lure only) and the remaining 13 traps had one of the 13 EAD-active compounds added to the SWD-lure, loaded as described in Cha et al. 2012 and released from a 1.5-ml vial with 3-mm hole with a piece of cotton. […] The number of flies inside treatment and control traps was counted after 20 h.
(§1) Statistical Analyses: Trap catch data from multiple-choice assay and two-choice assay were analyzed in a randomized block design with block as a random factor and different EAD-active compounds as a fixed factor using Poisson distribution with log link function and maximum likelihood estimation (Proc Glimmix, SAS Institute, SAS/STAT 9.2 User's Guide, Second Edition, 2009, SAS Institute Inc., Cary, N.C.). Oviposition data from (1) laboratory dose-response test, (2) semi-field cage choice test, and (3) first and second field experiments were also analyzed in a randomized block design with block as a random factor and different 2-pentylfuran treatments as a fixed factor using Poisson distribution with log link function and maximum likelihood estimation. […]

Drosophila suzukii [2] = assay: Field cage choice test: SWD oviposition on raspberries in deli cups; conditions: two-choice field cage, 10 mg/h sachet, 24 h, N=4
Method: Field cage choice test: We evaluated the effect of 2-pentylfuran released at 10 mg/h on SWD oviposition in choice oviposition experiment under semi-field condition using flies from SWD lab colony in Hawaii. For this experiment, we used a different, more user-friendly dispenser (polyethylene sachet: see Cha et al. 2017). The 10 mg/h release rate of 2-pentylfuran, inferred from calculating weight loss of loaded dispensers over time as described by Cha et al. 2017 (linear regression between weight of sachet containing 2-pentylfuran (mg) and time (h) during 30 h period: sachet weight=669.1[…]*time, R2=0.99, P<0.0001) was achieved using equilateral triangle shaped sachets made with two layers of polyethylene film (0.0508 mm thickness, Thermwell Products Co., Inc, Mahwah, N.J.) with 5 cm on each side. One 2 cm by 1 cm diameter piece of cotton dental wick was placed into the sachet and 1 ml of neat 2-pentylfuran was loaded onto the dental wick with a syringe. Loaded sachets were sealed using an Impulse heat-sealer (Model MP-12C, Midwest Pacific Inc., St. Louis). […]
as §1

Drosophila melanogaster = assay: Two-choice bioassay: attraction to apple cider vinegar traps; conditions: 20 h
Method: Two-Choice Bioassay with Drosophila melanogaster: The two-choice assay (N=5) was conducted with an arena design using a dome cage (30 cm W×30 cm L×30 cm H; shop.bugdorm.com) as described in Cha et al. (2012) to evaluate the effect of 2-pentylfuran on D. melanogaster, vinegar fly, attraction to apple cider vinegar, a known attractant. The same gate cup trap design was used as described above in Multiple-Choice Bioassay section. Both traps had 20 ml of apple cider vinegar with soap. […] A cotton ball (3 cm diameter) soaked with distilled water was placed in the center of the arena to provide water to D. melanogaster. . Adult flies (˜50, roughly 1:1 male: female ratio, 7-10 days old) were released in each arena. The number of flies inside treatment and control traps was counted after 20 h.
Statistical Analyses: Trap catch data from multiple-choice assay and two-choice assay were analyzed in a randomized block design with block as a random factor and different EAD-active compounds as a fixed factor using Poisson distribution with log link function and maximum likelihood estimation (Proc Glimmix, SAS Institute, SAS/STAT 9.2 User's Guide, Second Edition, 2009, SAS Institute Inc., Cary, N.C.). […]

Compound: CCCCCc1ccco1 [2-pentylfuran]
- reduction of trap catches of SWD (Drosophila suzukii [1]; SWD lure + 2-pentylfuran vs SWD lure only (62 SWD/trap)): 98%
- negative effect on SWD attraction to the SWD lure compared with 1-octen-3-ol (Drosophila suzukii [1]; multiple-choice, 20 h, N=8): significantly stronger than 1-octen-3-ol
- effect on SWD attraction to (catch in traps baited with) the 4-component SWD lure (Drosophila suzukii [1]; one compound added to SWD lure, 14 traps per arena, flies counted after 20 h, N=8): greatest reduction
- trap catch of SWD (Drosophila suzukii [1]; trap with SWD lure + 2-pentylfuran, 20 h): 1 SWD/trap
- reduction of SWD oviposition on raspberries (Drosophila suzukii [2]; deli cups with 25% opening): 85%
- reduction of SWD oviposition on raspberries (Drosophila suzukii [2]; deli cups with 50% opening): 62%
- reduction of SWD oviposition on raspberries (Drosophila suzukii [2]; deli cups with 75% opening): 75%
- effect on D. melanogaster attraction to apple cider vinegar (Drosophila melanogaster; 2-pentylfuran 10 mg/h sachet in gated trap, N=5): significantly reduced
- number of D. melanogaster captured in traps baited with apple cider vinegar and 2-pentylfuran (Drosophila melanogaster; among five replications, 10 mg/h, 50~67 in ACV-only traps): one

From US20210251228A1, “METHODS FOR REPELLING DROSOPHILA SPECIES USING 2-PENTYLFURAN” (The United States of America, as represented by the …, priority 2020, published 2021)
